Test [1] concerns the target MAP kinase-interacting serine/threonine-protein kinase 2 (Homo sapiens, UniProt Q9HBH9). Briefly: In Vitro Kinase Assay. On the procedure:
(§1) MNK1 and MNK2 inhibitor activity was determined using recombinant kinase domains expressed in E. coli. MNK1 and MNK2 were expressed as GST fusion proteins and the GST tag was removed using PreScission protease. After concentration to 10-15 mg/ml the proteins were flash frozen in liquid nitrogen and stored at −80° C. […] This reaction mixture was then used immediately for the activation of the MNKs. The activation of the MNK1 was performed by incubating 5.0 μM of MNK1 with 0.3 μM of activated ERK2 and 500 μM ATP at 30° C. for 6 hours. The activation of MNK2 was performed by incubating 50 μM of MNK2 with 3.0 μM of activated ERK2 and 500 μM ATP at 30° C. for 2 hours. The activated MNKs were stored at −20° C. until required for assay.

For test [2], the target named is MAP kinase-interacting serine/threonine-protein kinase 1 (Homo sapiens, UniProt Q9BUB5). Briefly: In Vitro Kinase Assay. On the procedure: as §1

Where only a bound is given, the exact number is not on record here.

MAP kinase-interacting serine/threonine-protein kinase 1, sequence (Q9BUB5 whole entry): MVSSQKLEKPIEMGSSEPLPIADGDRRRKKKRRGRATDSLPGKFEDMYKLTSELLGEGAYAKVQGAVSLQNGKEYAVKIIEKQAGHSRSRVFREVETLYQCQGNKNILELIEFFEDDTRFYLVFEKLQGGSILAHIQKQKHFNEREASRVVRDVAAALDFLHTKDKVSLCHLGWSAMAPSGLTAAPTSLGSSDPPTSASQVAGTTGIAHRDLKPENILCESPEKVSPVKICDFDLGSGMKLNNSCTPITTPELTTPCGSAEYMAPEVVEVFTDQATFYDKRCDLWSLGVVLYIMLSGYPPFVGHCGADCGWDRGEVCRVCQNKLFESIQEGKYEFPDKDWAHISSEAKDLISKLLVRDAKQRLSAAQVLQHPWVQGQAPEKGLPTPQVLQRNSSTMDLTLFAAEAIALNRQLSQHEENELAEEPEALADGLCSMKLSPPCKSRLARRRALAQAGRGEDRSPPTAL
MAP kinase-interacting serine/threonine-protein kinase 2, sequence (Q9HBH9 whole entry, the tested form may be a part): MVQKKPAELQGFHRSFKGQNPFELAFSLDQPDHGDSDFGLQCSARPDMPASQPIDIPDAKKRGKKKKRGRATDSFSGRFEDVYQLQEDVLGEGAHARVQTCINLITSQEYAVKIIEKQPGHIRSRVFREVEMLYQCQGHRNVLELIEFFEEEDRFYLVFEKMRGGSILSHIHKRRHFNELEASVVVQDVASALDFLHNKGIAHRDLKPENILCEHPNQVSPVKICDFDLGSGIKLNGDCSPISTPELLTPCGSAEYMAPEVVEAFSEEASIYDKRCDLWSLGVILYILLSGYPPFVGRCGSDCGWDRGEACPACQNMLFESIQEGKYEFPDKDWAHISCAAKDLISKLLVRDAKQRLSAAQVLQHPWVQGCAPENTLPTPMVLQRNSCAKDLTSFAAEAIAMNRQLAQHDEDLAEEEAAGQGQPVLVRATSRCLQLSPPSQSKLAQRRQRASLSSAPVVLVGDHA

What is called IC50 is the concentration at which inhibition is half-maximal. Lower therefore signals inhibition by little substance. As for `CN1CCN(C(=O)c2ccc(-c3ccc4ncc(-c5ccc(C#N)cc5)n4n3)cc2)CC1` [US9908886, Example 54], the IC50 in test [1] and in test [2] was less than 100 nM in each case.

The record behind these values is BindingDB's records for patent US9908886 (Agency For Science, Technology and Research, 2018).
